PMC7395068, “The evolution of strategies to minimise the risk of human drug-induced liver injury (DILI) in drug discovery and development” (Archives of Toxicology, 2020)
Read-outs that look alike come from different tables or passages of the source.

Assays:
[1] = system: HepG2; set-up: method as in Albrecht 2019; details: In vitro Assay; ref Albrecht 2019; cited from earlier work
[2] = system: PHH spheroids; details: cited from earlier work
[3] = ref Chen 2011; cited from earlier work
[4] = system: isolated mouse liver mitochondria; details: In vitro Assay; ref Porceddu 2012; cited from earlier work
[5] = cited from earlier work
[6] = Plasma free fraction (fu) and unbound Cmax (Cmax,u); assay type: in vitro ADME, human; details: unbound plasma Cmax
Protocol: The prediction of DILI severity was evaluated further using the 3D combined HCI assays using plasma-free fraction. The majority of fu values were obtained from literature, when unavailable in-house prediction was utilised. Unbound plasma Cmax concentrations (Cmax,u) were derived by multiplying total plasma Cmax with the corresponding free fraction (fu) for each compound.

[7] = system: HepG2 cells, primary human hepatocytes; details: In vitro Assay; ref Garside 2014; cited from earlier work
[8] = system: HepaRG spheroids; assay: Combined HCI (HCS) and cellular ATP 3D assay in HepaRG spheroids; details: for AC50 / minimal effective concentration: Homo sapiens
[9] = system: hLiMTs; assay: Combined HCI (HCS) and cellular ATP 3D assay in hLiMTs; details: for AC50 / minimal effective concentration: Homo sapiens
[10] = system: PHH; details: cited from earlier work
[11] = system: hLiMTs; details: cited from earlier work
[12] = system: PHH; details: In vitro Assay; ref Albrecht 2019; cited from earlier work
[13] = read-out: Human plasma Cmax; total plasma Cmax.tot, median of 9 literature references; cited from earlier work
[14] = system: THLE-Null and THLE-3A4 cells; details: In vitro Assay; ref Gustafsson 2014; cited from earlier work
[15] = system: primary human hepatocytes, NIH3T3 fibroblasts, BSEP, CYP3A4; details: cited from earlier work
[16] = system: HepG2 C3A spheroid, BSEP, Glu/Gal in HepG2 cells, bioactivation; details: cited from earlier work
[17] = plasma free fraction; cited from earlier work
[18] = system: HepG2 cells; details: cited from earlier work
[19] = system: THLE or HepG2 cells, isolated mitochondria, BSEP; details: cited from earlier work
[20] = system: rBsep; details: In vitro Assay; ref Dawson 2012; cited from earlier work
[21] = cited from earlier work; remark: listed apart in the source
[22] = Microtissue model structural based (HCI), combined HCS and ATP, MEC < 25 × Cmax.tot cut-off
[23] = In vitro Assay, ref Proctor 2017
[24] = In vitro Assay, ref Schadt 2015
[25] = In vitro Assay, ref Persson 2013
[26] = Modeled in vitro assays (cytotoxicity, mitochondrial dysfunction, BSEP), ref Aleo et al. 2019

Cc1ccc(C(=O)c2cc(O)c(O)c([N+](=O)[O-])c2)cc1 [tolcapone, reference compound]
Cytotoxicity HepG2 48 hrs [1]: +VE | hLiMTs ATP <20 x Cmax ([2]; In vitro Assay, ref Vorrink 2018): +VE (IC20 < 20 × Cmax.tot cut-off) | DILI in vitro assay prediction, Vorrink (2018) ([2]; PHH spheroids, ATP, 14 days, IC20 < 20 × Cmax.tot, ref Vorrink et al. 2018): +VE (IC20 < 20 × Cmax.tot cut-off) | DILI Score (FDA) (1-8) [3]: 8 | in vitro data EC2<=1x Cmax [4]: +VE | in vitro data EC20<=2uM [4]: -VE | Assigned DILI category ([5]; Chen et al. 2016 or literature alignment, ref Chen et al. 2016): 3 | In vivo DILI ([5]; ref Albrecht 2019): +VE | In vivo DILI ([5]; ref Aleo 2019): +VE | In vivo DILI ([5]; ref Dawson 2012): +VE | In vivo DILI ([5]; ref Garside 2014): +VE | In vivo DILI ([5]; ref Gustafsson 2014): +VE | In vivo DILI ([5]; ref Persson 2013): +VE | In vivo DILI ([5]; ref Porceddu 2012): +VE | In vivo DILI ([5]; ref Proctor 2017): +VE | In vivo DILI ([5]; ref Schadt 2015): +VE | In vivo DILI ([5]; ref Vorrink 2018): +VE | In vivo DILI ([5]; ref Williams 2019): +VE | Human plasma Cmax,u [6]: 0.048 µM | Cluster 1-6 +VE Assay [7]: +VE | HepaRG <25x Avg Cmax ATP ([8]; HepaRG, ATP endpoint, cut-off <25x Avg Cmax): +ve | HepaRG <100x Avg Cmaxu ATP ([8]; HepaRG, ATP endpoint, cut-off <100x Avg Cmaxu): -ve | HepaRG <25x Avg Cmax HCS ([8]; HepaRG, HCS endpoints, cut-off <25x Avg Cmax): +ve | HepaRG <100x Avg Cmaxu HCS ([8]; HepaRG, HCS endpoints, cut-off <100x Avg Cmaxu): -ve | HepaRG <25x Avg Cmax All ([8]; HepaRG, all endpoints (ATP and HCS), cut-off <25x Avg Cmax): +ve | HepaRG Cmax max All ([8]; HepaRG, all endpoints, Cmax max used): +ve | HepaRG Cmax min All ([8]; HepaRG, all endpoints, Cmax min used): +ve | HepaRG <10 uM All ([8]; HepaRG, all endpoints, cut-off <10 uM): -ve | HepaRG <100x Avg Cmaxu All ([8]; HepaRG, all endpoints, cut-off <100x Avg Cmaxu): -ve | AC50 ([8]; HepaRG, read-out: ATP endpoint AC50): 35.3 µM | minimal effective concentration ([8]; HepaRG, read-out: ATP endpoint MEC): 20.5 µM | AC50 ([8]; HepaRG, read-out: HCS endpoint AC50): 36.1 µM | minimal effective concentration ([8]; HepaRG, read-out: HCS endpoint MEC): 21 µM | DILI prediction HepaRG spheroids (HCS-MEC) [8, 22]: +VE (MEC < 25 × Cmax.tot cut-off) | AC50 ([9]; read-out: ATP endpoint AC50): 161 µM | minimal effective concentration ([9]; read-out: ATP endpoint MEC): 114 µM | AC50 ([9]; read-out: HCS endpoint AC50): 60.8 µM | minimal effective concentration ([9]; read-out: HCS endpoint MEC): 24.1 µM | DILI prediction hLiMTs (HCS-MEC) [9, 22]: +VE (MEC < 25 × Cmax.tot cut-off) | hLiMTs <25x Avg Cmax ATP ([9]; hLiMTs, ATP endpoint, cut-off <25x Avg Cmax): +ve | hLiMTs <100x Avg Cmaxu ATP ([9]; hLiMTs, ATP endpoint, cut-off <100x Avg Cmaxu): -ve | hLiMTs <25x Avg Cmax HCS ([9]; hLiMTs, HCS endpoints, cut-off <25x Avg Cmax): +ve | hLiMTs <100x Avg Cmaxu HCS ([9]; hLiMTs, HCS endpoints, cut-off <100x Avg Cmaxu): -ve | hLiMTs <25x Avg Cmax All ([9]; hLiMTs, all endpoints (ATP and HCS), cut-off <25x Avg Cmax): +ve | hLiMTs Cmax max All ([9]; hLiMTs, all endpoints, Cmax max used): +ve | hLiMTs Cmax min All ([9]; hLiMTs, all endpoints, Cmax min used): +ve | hLiMTs <10 uM All ([9]; hLiMTs, all endpoints, cut-off <10 uM): -ve | hLiMTs <100x Avg Cmaxu All ([9]; hLiMTs, all endpoints, cut-off <100x Avg Cmaxu): -ve | PHH/100xCmax, Proctor (2017) ([10]; 2D PHH, ATP, IC50 < 100 × Cmax.tot, ref Proctor et al. 2017): +VE (IC50 < 100 × Cmax.tot) | PHH/100uM, Proctor (2017) ([10]; 2D PHH, ATP, IC50 threshold 100 µM, ref Proctor et al. 2017): -VE | PHH ATP <100uM [10, 23]: +VE (IC50 threshold of 100 µM) | hLiMTs ATP <100uM [11, 23]: +VE (IC50 threshold of 100 µM) | hLiMTs/100xCmax, Proctor (2017) ([11]; hLiMTs, ATP, IC50 < 100 × Cmax.tot, ref Proctor et al. 2017): +VE (IC50 < 100 × Cmax.tot) | hLiMTs/100uM, Proctor (2017) ([11]; hLiMTs, ATP, IC50 threshold 100 µM, ref Proctor et al. 2017): +VE (IC50 threshold of 100 µM) | Cytotoxicity PHH 48 hrs [12]: +VE | Cmax [13]: 47.6 µM | THLE-Null [14]: +VE | THLE-Null/3A4 [14]: -VE | DILI in vitro assay prediction, Schadt (2015) ([15]; BSEP & Metabolism based, ref Schadt et al. 2015): +VE | Cellular toxicity (3T3 cells) [15, 24]: +VE | Combined Assay [15, 24]: +VE | GSH adduct HML [15, 24]: +VE | Hepatocyte cellular toxicity [15, 24]: +VE | MitoTox 3T3 [15, 24]: -VE | TDI CYP3A4 [15, 24]: -VE | hBSEP inhibition [15, 24]: +VE | Bayesian Machine Learning DILI prediction, Williams (2019) ([16]; Bayesian modeling, ref Williams et al. 2019): +VE | Bayesian Machine Learning ([16]; In vitro Assay, ref Williams 2019): +VE | fu [17]: 0.001 | Cluser analysis [18, 25]: -VE | Structural based (HCI) [18, 25]: +VE | DILI in vitro assay prediction, Persson (2013) ([18]; Structural based (HCI), HepG2, ref Persson et al. 2013): -VE | Partition Hybrid HRM Score ([19]; In vitro Assay, ref Aleo 2019): +VE | Ro2 Hybrid HRM Score ([19]; In vitro Assay, ref Aleo 2019): +VE | Partition Hybrid HRM Score ≥4, Aleo (2019) [19, 26]: +VE (Partition Hybrid HRM Score ≥4) | Partition Hybrid HRM Score ≥8, Aleo (2019) [19, 26]: +VE (Partition Hybrid HRM Score ≥8) | Rule of Two hybrid HRM Score ≥3, Aleo (2019) [19, 26]: +VE (Rule of Two hybrid HRM Score ≥3) | Rule of Two hybrid HRM Score ≥8, Aleo (2019) [19, 26]: +VE (Rule of Two hybrid HRM Score ≥8) | Inhibition of rBsep cutoff<1& cmax u>.2 [20]: +VE | Inhibition of rBsep cutoff<3 [20]: +VE | DILI severity category (Chen et al. [2016]) ([21]; LTKB DILIrank category, ref Chen et al. 2016): Most | DILI severity category (Chen 2016) ([21]; human DILI classification, LTKB DILIrank, ref Chen et al. 2016): Most | DILI severity category ([21]; human DILI severity, ref Chen et al.): Most | DILI +VE (5-8), DILI -VE (-4) ([21]; ref Chen 2016): +VE | DILI severity category ([21]; ref Chen 2016): vMost-DILI-Concern
